The values below come from the Biogen ADME set (Fang et al. 2023).

For the data set the following is noted: for aqueous solubility: pH 6.8.

Converted amounts (≈) assume the structure as drawn. Where only a bound is given, the exact number is not on record here.

Turning to `NS(=O)(=O)N1CCN(Cc2c(F)cccc2N2CCCC2)CC1`, the MDR1-MDCK efflux ratio stood at 1.75; the intrinsic clearance, human liver microsomes was determined as 1.45 L/h/kg; the intrinsic clearance, rat liver microsomes came out at 77.1 L/h/kg.

In the case of `c1ccc(Cc2nnc(NC3CCOCC3)s2)cc1`, the MDR1-MDCK efflux ratio came to 1.23; the intrinsic clearance, human liver microsomes is at most 0.284 L/h/kg; the intrinsic clearance, rat liver microsomes amounted to 1.24 L/h/kg; the aqueous solubility was 0.034 mg/mL (≈ 123 µM).

Turning to `COc1ccccc1N1CCN(c2nc(-c3ccc(C)cc3)cc(=O)[nH]2)CC1`, the MDR1-MDCK efflux ratio was determined as 1.75 and the aqueous solubility was 0.0002 mg/mL (≈ 0.531 µM).

As for `Fc1cccc(Cn2nnc(-c3ccccc3)n2)c1F`, the MDR1-MDCK efflux ratio worked out at 0.358 and the aqueous solubility is 0.0001 mg/mL (≈ 0.367 µM).

As to `COc1ccc(OC)c(S(=O)(=O)Nc2cccc(CCc3ccccn3)c2)c1`, the MDR1-MDCK efflux ratio was found to be 4.21; the intrinsic clearance, human liver microsomes stood at 34.9 L/h/kg; the intrinsic clearance, rat liver microsomes is 189 L/h/kg; the aqueous solubility amounted to 0.0398 mg/mL (≈ 99.8 µM).

`COCCc1ccc(OCC(O)CNC(C)C)cc1` (centres undefined) displayed a fraction unbound, rat plasma of 1.

On to `CC(C)(O)CNc1ncc(-c2ccnc(Nc3ccnc(Cl)c3)n2)c(CC2CC2)n1`, for which the MDR1-MDCK efflux ratio is 10.5; the intrinsic clearance, human liver microsomes came out at 1.42 L/h/kg; the intrinsic clearance, rat liver microsomes amounted to 8.93 L/h/kg; the aqueous solubility worked out at 0.0219 mg/mL (≈ 51.5 µM).

Turning to `COc1cc(Nc2ncc3c(n2)-c2ccc(Cl)cc2C(c2c(F)cccc2OC)=NC3)ccc1C(=O)O`, the MDR1-MDCK efflux ratio amounted to 13.5; the intrinsic clearance, human liver microsomes is at most 0.284 L/h/kg; the intrinsic clearance, rat liver microsomes is 1.23 L/h/kg; the aqueous solubility was 0.0731 mg/mL (≈ 141 µM).

For `COc1cc(CCNC(=O)c2nc3cccc(C)n3c2F)cc(OC)c1`, the intrinsic clearance, human liver microsomes came to 4.9 L/h/kg; the intrinsic clearance, rat liver microsomes was found to be 49.2 L/h/kg; the aqueous solubility was determined as 0.0395 mg/mL (≈ 111 µM).

As for `O=C(CCCc1cc(Cl)sc1Cl)N1CC[C@H](O)C1`, the MDR1-MDCK efflux ratio turned out to be 1.49; the intrinsic clearance, human liver microsomes came to 1.11 L/h/kg; the intrinsic clearance, rat liver microsomes was 30.3 L/h/kg; the aqueous solubility amounted to 0.05 mg/mL (≈ 162 µM).

Regarding `FC(F)(F)c1ccc(Nc2nc3cc(Oc4ccnc(-c5ncc(C(F)(F)F)[nH]5)c4)ccc3[nH]2)cc1`, the MDR1-MDCK efflux ratio is 0.86 and the aqueous solubility was 0.00035 mg/mL (≈ 0.694 µM).

With `Cn1cc(CCNc2cncc(Br)c2)cn1`, the MDR1-MDCK efflux ratio is 0.655; the intrinsic clearance, human liver microsomes stood at 0.721 L/h/kg; the intrinsic clearance, rat liver microsomes came out at 6.6 L/h/kg; the aqueous solubility worked out at 0.0404 mg/mL (≈ 144 µM).

`O=c1[nH]c2ccccc2n1C1CCN(Cc2nc(-c3cccs3)no2)CC1` came in with an intrinsic clearance, human liver microsomes of 0.684 L/h/kg and an intrinsic clearance, rat liver microsomes of 14 L/h/kg.

For `N#CCSCC(=O)NC1CCCCCC1`, the MDR1-MDCK efflux ratio came to 0.743; the intrinsic clearance, human liver microsomes is at most 0.284 L/h/kg; the intrinsic clearance, rat liver microsomes came to 2.29 L/h/kg; the aqueous solubility was determined as 0.0448 mg/mL (≈ 198 µM).

In the case of `CC(C)(C)OC(=O)N1CCCC1C(=O)N1CCC(C(=O)N[C@@H](Cc2c[nH]c3ccccc23)C(=O)O)CC1` (some centres undefined), the fraction unbound, human plasma turned out to be 0.492; the fraction unbound, rat plasma was 0.696; the intrinsic clearance, human liver microsomes is at most 0.284 L/h/kg.

For `CCCNC(=O)c1ccc(OC2CCN(C)CC2)cc1`, the intrinsic clearance, human liver microsomes was at most 0.284 L/h/kg and the intrinsic clearance, rat liver microsomes was 2.11 L/h/kg.

On to `Cc1sc(NC(=O)CN2CCOC(C3CCCO3)C2)c(C)c1C` (centres undefined), for which the MDR1-MDCK efflux ratio was found to be 1; the intrinsic clearance, human liver microsomes was 0.765 L/h/kg; the intrinsic clearance, rat liver microsomes came to 11.1 L/h/kg; the aqueous solubility is 0.0609 mg/mL (≈ 180 µM).

With `O=C(COCC1CC1)N1CCCc2ncccc21`, the MDR1-MDCK efflux ratio turned out to be 0.825; the intrinsic clearance, human liver microsomes is 0.826 L/h/kg; the intrinsic clearance, rat liver microsomes is 4.08 L/h/kg; the aqueous solubility came to 0.0339 mg/mL (≈ 138 µM).

Compound `CCOc1ccc(Oc2ccc(OCc3cc(F)ccc3F)cc2)c(N)c1` returned an intrinsic clearance, human liver microsomes of 0.527 L/h/kg and an intrinsic clearance, rat liver microsomes of 6.25 L/h/kg.

As for `CONC(=O)c1c2c(nc3ccccc13)CCC2`, the intrinsic clearance, human liver microsomes is at most 0.284 L/h/kg and the intrinsic clearance, rat liver microsomes is at most 0.64 L/h/kg.

As for `O=C(c1cccc(CNc2ccc3nccnc3n2)c1)N1CCCCC1`, the MDR1-MDCK efflux ratio was determined as 37.4; the intrinsic clearance, human liver microsomes is 0.832 L/h/kg; the intrinsic clearance, rat liver microsomes came out at 8.73 L/h/kg; the aqueous solubility came out at 0.0563 mg/mL (≈ 162 µM).

For the compound `CN(CCSc1ccc2nnnn2n1)Cc1ccccc1`, the MDR1-MDCK efflux ratio was found to be 0.431; the intrinsic clearance, human liver microsomes was 3.88 L/h/kg; the intrinsic clearance, rat liver microsomes is at most 0.64 L/h/kg.

With `COc1cccc(-c2nnn(Cc3cc(F)cc4cccnc34)n2)c1`, the MDR1-MDCK efflux ratio was found to be 0.486 and the aqueous solubility was 0.00014 mg/mL (≈ 0.417 µM).

`CCN1CCC(Oc2ncnc3c2c(C)c(C)n3C2CCCCC2)CC1` gave an intrinsic clearance, human liver microsomes of 1.9 L/h/kg and an intrinsic clearance, rat liver microsomes of 43.5 L/h/kg.

On to `Cn1c(=O)n(Cc2cccnc2)c(=O)c2ccc(C(F)(F)F)nc21`, for which the MDR1-MDCK efflux ratio worked out at 0.645; the intrinsic clearance, human liver microsomes is at most 0.284 L/h/kg; the intrinsic clearance, rat liver microsomes is 5.02 L/h/kg.

Regarding `COCC(=O)Nc1ccc(NC(=O)Cc2cc(C)ccc2C)cc1`, the MDR1-MDCK efflux ratio was 1.2; the intrinsic clearance, human liver microsomes was 2.2 L/h/kg; the intrinsic clearance, rat liver microsomes was 4.59 L/h/kg.

In the case of `Cc1nnc2ccc(N3CCC4(CCCCC4)C3)nn12`, the MDR1-MDCK efflux ratio was 0.709; the intrinsic clearance, human liver microsomes came to 1.99 L/h/kg; the intrinsic clearance, rat liver microsomes is 36 L/h/kg.

With `COc1ccc(CNCc2cccc3ccccc23)cc1`, the MDR1-MDCK efflux ratio was 0.45; the intrinsic clearance, human liver microsomes amounted to 11.6 L/h/kg; the intrinsic clearance, rat liver microsomes came to 37.2 L/h/kg; the aqueous solubility came to 0.0472 mg/mL (≈ 170 µM).

Consider `O=C(O)c1cc2cc(O)c(O)cc2c(C(=O)c2ccc(O)c(O)c2)n1`, for which the intrinsic clearance, human liver microsomes came out at 2.13 L/h/kg; the intrinsic clearance, rat liver microsomes came to 6.58 L/h/kg; the aqueous solubility is 0.0579 mg/mL (≈ 170 µM).

For `N#CCc1ccc(OCc2ccncc2)cc1`, the intrinsic clearance, human liver microsomes is 3.2 L/h/kg and the intrinsic clearance, rat liver microsomes was 22.4 L/h/kg.

On to `CN(Cc1nnc(C2CC2)n1C)C(=O)C1C2CC3CC(C2)CC1C3` (centres undefined), for which the MDR1-MDCK efflux ratio is 11.1; the intrinsic clearance, human liver microsomes worked out at 2.87 L/h/kg; the intrinsic clearance, rat liver microsomes was 57.1 L/h/kg; the aqueous solubility was 0.0464 mg/mL (≈ 141 µM).

Compound `O=C(NCCCn1ccnc1)N1CC2(CCCC2)c2ccccc21` displayed an intrinsic clearance, human liver microsomes of 4.13 L/h/kg; an intrinsic clearance, rat liver microsomes of 44.8 L/h/kg; an aqueous solubility of 0.0631 mg/mL (≈ 194 µM).

`Cn1cc(-c2nc(C(=O)Nc3ccc4c(c3)OCCCO4)cs2)cn1` returned an intrinsic clearance, human liver microsomes of 0.536 L/h/kg; an intrinsic clearance, rat liver microsomes of 13.6 L/h/kg; an aqueous solubility of 0.034 mg/mL (≈ 95.4 µM).

As to `O=C(c1cn(Cc2cncn2Cc2ccc(Br)cc2)cc1-c1cccc2ccccc12)N1CCOCC1`, the MDR1-MDCK efflux ratio was found to be 22.8; the intrinsic clearance, human liver microsomes stood at 9.01 L/h/kg; the intrinsic clearance, rat liver microsomes was 121 L/h/kg.

On to `Cc1ccc2c(c1)cc(C(=O)N1CCOC(C(=O)N3CCc4ccccc4C3)C1)n2C` (centres undefined), for which the MDR1-MDCK efflux ratio came out at 2.39; the intrinsic clearance, human liver microsomes was 11.7 L/h/kg; the intrinsic clearance, rat liver microsomes was 151 L/h/kg.

On to `c1ccc2c(c1)CN(c1cnc3ccccc3n1)CCN2`, for which the MDR1-MDCK efflux ratio stood at 0.54; the intrinsic clearance, human liver microsomes was 5.64 L/h/kg; the intrinsic clearance, rat liver microsomes stood at 37.7 L/h/kg; the aqueous solubility is 0.0251 mg/mL (≈ 90.8 µM).

For `CN(C)C(=O)C(C)(C)NC(=O)OC(C)(C)C`, the MDR1-MDCK efflux ratio came out at 1.37; the intrinsic clearance, human liver microsomes was at most 0.284 L/h/kg; the intrinsic clearance, rat liver microsomes is 1.46 L/h/kg.

For `Cc1csc(N2CCN(Cc3ccc(OCC(F)(F)F)nc3)CC2)n1`, the MDR1-MDCK efflux ratio turned out to be 0.655; the intrinsic clearance, human liver microsomes turned out to be 1.36 L/h/kg; the intrinsic clearance, rat liver microsomes was 6.37 L/h/kg; the aqueous solubility was 0.031 mg/mL (≈ 83.3 µM).

For `Clc1ccc2oc(/C=C/c3csnn3)nc2c1`, the aqueous solubility worked out at 0.00019 mg/mL (≈ 0.72 µM).

In the case of `Cc1noc2ncc(C(=O)Nc3nc(C4CC4)cs3)cc12`, the MDR1-MDCK efflux ratio turned out to be 0.511; the intrinsic clearance, human liver microsomes stood at 5.39 L/h/kg; the intrinsic clearance, rat liver microsomes stood at 22.6 L/h/kg; the aqueous solubility was determined as 0.0115 mg/mL (≈ 38.3 µM).

As to `COc1ccc(-c2[nH]c3ncccc3c2CN(C)CCOc2ccccc2OC)cc1`, the MDR1-MDCK efflux ratio was found to be 3.88 and the aqueous solubility was 0.0003 mg/mL (≈ 0.719 µM).

Turning to `CC(C)C(=O)Nc1ncn(Cc2cccnc2)n1`, the MDR1-MDCK efflux ratio was 16.3; the intrinsic clearance, human liver microsomes was at most 0.284 L/h/kg; the intrinsic clearance, rat liver microsomes was at most 0.64 L/h/kg; the aqueous solubility was found to be 0.038 mg/mL (≈ 155 µM).

As to `CCNC(=O)c1ccnc(-c2ccc(F)c(C)c2)c1`, the intrinsic clearance, human liver microsomes came out at 7.36 L/h/kg; the intrinsic clearance, rat liver microsomes stood at 64.3 L/h/kg; the aqueous solubility was found to be 0.0284 mg/mL (≈ 110 µM).

Regarding `Cc1nc2c(cnn2C(C)C)c(C)c1CCC(=O)O`, the intrinsic clearance, human liver microsomes is at most 0.284 L/h/kg; the intrinsic clearance, rat liver microsomes is at most 0.64 L/h/kg; the aqueous solubility turned out to be 0.0257 mg/mL (≈ 98.3 µM).

With `Cc1c(CN2CCC(Nc3ncnc4sc(CC(F)(F)F)cc34)CC2)ccc2c1cc(C#N)n2Cc1cn[nH]c1`, the MDR1-MDCK efflux ratio came out at 14.1; the intrinsic clearance, human liver microsomes turned out to be 8.13 L/h/kg; the intrinsic clearance, rat liver microsomes stood at 6.29 L/h/kg; the aqueous solubility is 0.00323 mg/mL (≈ 5.72 µM).

Regarding `N#Cc1c(O)nc2scc(-c3ccc(-c4ccccc4O)cc3)c2c1O`, the MDR1-MDCK efflux ratio turned out to be 1.19; the intrinsic clearance, human liver microsomes worked out at 0.669 L/h/kg; the intrinsic clearance, rat liver microsomes was at most 0.64 L/h/kg; the aqueous solubility worked out at 0.0588 mg/mL (≈ 163 µM).

As for `COc1ccc(-c2noc([C@@H]3CCCN3Cc3ccccc3)n2)cn1`, the MDR1-MDCK efflux ratio was 0.592; the intrinsic clearance, human liver microsomes was 5.38 L/h/kg; the intrinsic clearance, rat liver microsomes was 69.1 L/h/kg; the aqueous solubility is 0.0255 mg/mL (≈ 75.8 µM).

As to `Cc1nc(-c2ccccc2)ccc1C(=O)N1CCCS1(=O)=O`, the MDR1-MDCK efflux ratio came to 0.766; the intrinsic clearance, human liver microsomes was at most 0.284 L/h/kg; the intrinsic clearance, rat liver microsomes came to 5.76 L/h/kg; the aqueous solubility stood at 0.0785 mg/mL (≈ 248 µM).
